Reference: patent US9169232B2, “3-(5-methyl-2-oxo-l, 3-dioxol-4-yl) methyloxy-2-trans-[(4-chloro phenyl) cyclohexyl][1,4]naphthaquinone-atovaquone prodrug” (Alkem Laboratories Limited, priority 2011, dated 2015)

Tests used:
[1] = plasma levels of atovaquone after administration of the prodrug; settings: in vivo
Excerpt: (§1) The Atovaquone prodrug compound of formula (I) of the present invention overcomes the problems associated with poor solubility and variable bioavailability of atovaquone.

[2] = solubility of the prodrug compared with atovaquone; assay type: physicochemical
Excerpt: as §1

[3] = in-vitro and animal study of toxicity; assay type: in vivo
Excerpt: as §1

plasma levels of atovaquone compared with levels after administration of atovaquone [1]: non-variable plasma levels of atovaquone
solubility compared with atovaquone [2]: better solubility than atovaquone
Compound: Cc1oc(=O)oc1COC1=C(C2CCC(c3ccc(Cl)cc3)CC2)C(=O)c2ccccc2C1=O (stereo not drawn) [compound of formula (I), 3-(5-methyl-2-oxo-1,3-dioxol-4-yl)methyloxy-2-trans-[(4-chlorophenyl)cyclohexyl][1,4]naphthaquinone]
toxicity [3]: toxicity in the acceptable range
